Experiment: Growth inhibition of ATL patient-derived S1T cells after 72 hrs by WST-8 assay
Format: functional
Conditions: Homo sapiens

| Structure (SMILES) | IC50 [nM] |
| --- | --- |
| COc1cc(C2C3=C(Cc4c2cc2c(c4OC)OCO2)C(=O)OC3)cc(OC)c1OC (configuration not stated) | 7 |
| COc1cc(C2C3=C(Cc4cc5c(cc42)OCO5)C(=O)OC3)cc(OC)c1OC (configuration not stated) | 5.1 |

— ChEMBL document CHEMBL4118035, “Total Synthesis of the Claimed Structure of (±)-Hyptinin and Structural Revision of Natural Hyptinin” (J Nat Prod, 2017)
